{"source": "patent US7217505B2", "about": "“Method for determining whether condition is symptom of metabolic syndrome” (Cortendo AB, priority 1998, dated 2007)", "tested_on": "autoproduction of cortisol", "experiment": "dexamethasone inhibition test: serum cortisol the morning after low oral doses of dexamethasone", "key": {"[1]": {"settings": "'dangerously' belly fat individuals"}}, "note": "Values joined by “and” are separate entries in the source; they are usually repeats but may differ in a detail not shown here. Identical values can stand only once.", "data": [{"compound": "C[C@@H]1C[C@H]2[C@@H]3CCC4=CC(=O)C=C[C@]4(C)[C@@]3(F)[C@@H](O)C[C@]2(C)[C@@]1(O)C(=O)CO", "note": "[dexamethasone]", "values": [{"measurement": "dose from which inhibition could be measured", "setting": "[1]", "value": 0.25, "unit": "mg"}, {"measurement": "dose of maximum inhibition", "setting": "[1]", "value": "0.5 to 1", "unit": "mg"}, {"measurement": "critical doses with significant differences between belly fat and other individuals", "setting": "about 20 individuals, most distinct difference at 0.5 mg", "value": "0.125 mg and 0.5 mg"}, {"measurement": "dose at which inhibition of the autoproduction of cortisol was already obtained", "setting": "normal weight individuals and those with general overweight but without belly fatness", "value": 0.05, "unit": "mg"}, {"measurement": "dose of maximum inhibition of the autoproduction of cortisol", "setting": "normal weight individuals and those with general overweight but without belly fatness (for a few also at 0.5 mg)", "value": 1, "unit": "mg"}]}]}
